Measurements from BindingDB's records for doi:10.1021/jm4013906 (Bristol-Myers Squibb, 2013).
pIC50: −log10 of the molar value.

Experiment: Antagonist activity at P2Y1 receptor in platelet-enriched human plasma assessed as 10 uM ADP-induced platelet aggregation preincubated for 1 min followed by ADP induction measured at 5 mins by aggregometric analysis

pIC50	SMILES
5.20	CC(C)(C)CN1CCC2(CC1)CCN(c1ccccc1NC(=O)Nc1ccc(OC(F)(F)F)cc1)c1ccccc12
4.82	CC(C)(C)CN1CCC2(CC1)CN(c1ccccc1NC(=O)Nc1ccc(OC(F)(F)F)cc1)c1cccnc12
< 4.40	CC(C)(C)CN1CCC2(CC1)CN(c1ccccc1NC(=O)Nc1ccc(OC(F)(F)F)cc1)c1ncccc12
< 4.40	CC(C)(C)CN1CCCC2(C1)CN(c1ccccc1NC(=O)Nc1ccc(OC(F)(F)F)cc1)c1ccccc12 (stereo not drawn)
4.73	CC(C)(C)CN1CCC2(C1)CN(c1ccccc1NC(=O)Nc1ccc(OC(F)(F)F)cc1)c1ccccc12 (stereo not drawn)
< 4.40	CC(C)(C)CN1CCC2(CC1)CN(c1ccccc1NC(=O)Nc1ccc(OC(F)(F)F)cc1)c1ccncc12
4.27	COC(=O)N1CCC2(CC1)CN(c1ccccc1NC(=O)Nc1ccc(OC(F)(F)F)cc1)c1ccccc12
5.40	CC(C)(C)CN1CCC2(CC1)CN(c1ccccc1NC(=O)Nc1ccc(OC(F)(F)F)cc1)c1cnccc12
4.73	O=C(Nc1ccc(OC(F)(F)F)cc1)Nc1ccccc1N1CC2(CCN(Cc3ccccc3)CC2)c2ccccc21

SMILES	pIC50
CC(C)N1CCC2(CC1)CN(c1ccccc1NC(=O)Nc1ccc(OC(F)(F)F)cc1)c1ccccc12	4.53
CC(C)(C)CN1CCC2(CC1)CN(c1ccccc1NC(=O)Nc1ccc(OC(F)(F)F)cc1)c1ccccc12	5.31
CC(C)CN1CCC2(CC1)CN(c1ccccc1NC(=O)Nc1ccc(OC(F)(F)F)cc1)c1ccccc12	5.06

Experiment: Antagonist activity at P2Y1 receptor in platelet-enriched human plasma assessed as 2.5 uM ADP-induced platelet aggregation preincubated for 1 min followed by ADP induction measured at 5 mins by aggregometric analysis

pIC50	SMILES
< 5.00	O=C(Nc1ccc(OC(F)(F)F)cc1)Nc1ccccc1N1CCCc2ccccc21
5.07	CC1(C)CN(c2ccccc2NC(=O)Nc2ccc(OC(F)(F)F)cc2)c2ccccc21
4.60	COCCN1CCC2(CC1)CN(c1ccccc1NC(=O)Nc1ccc(OC(F)(F)F)cc1)c1ccccc12
< 5.00	O=C(Nc1ccc(OC(F)(F)F)cc1)Nc1ccccc1N1CC2(CC2)c2ccccc21
< 5.00	CC1CCN(c2ccccc2NC(=O)Nc2ccc(OC(F)(F)F)cc2)c2ccccc21 (stereo not drawn)
< 5.00	CC(C)NC(=O)N1CCC2(CC1)CN(c1ccccc1NC(=O)Nc1ccc(OC(F)(F)F)cc1)c1ccccc12
5.70	O=C(Nc1ccc(OC(F)(F)F)cc1)Nc1ccccc1N1CC2(CCCCC2)c2ccccc21
5.39	O=C(Nc1ccc(OC(F)(F)F)cc1)Nc1ccccc1N1CC2(CCC2)c2ccccc21
4.95	CC1(C)CCN(c2ncccc2NC(=O)Nc2ccc(OC(F)(F)F)cc2)c2ccccc21
< 5.00	CC1(C)CN(c2ncccc2NC(=O)Nc2ccc(OC(F)(F)F)cc2)c2ccccc21
< 5.00	CC1(C)CN(c2ccccc2NC(=O)Nc2ccc(OC(F)(F)F)cc2)c2ccccc2O1
5.66	CC1(C)CCN(c2ccccc2NC(=O)Nc2ccc(OC(F)(F)F)cc2)c2ccccc21
5.24	COC(=O)N1CCC2(CC1)CN(c1ccccc1NC(=O)Nc1ccc(OC(F)(F)F)cc1)c1ccccc12
5.62	O=C(Nc1ccc(OC(F)(F)F)cc1)Nc1ccccc1N1CC2(CCCC2)c2ccccc21
< 5.00	O=C(Nc1ccc(OC(F)(F)F)cc1)Nc1ccccc1N1CCOc2ccccc21
< 5.00	O=C(Nc1ccc(OC(F)(F)F)cc1)Nc1ccccc1N1CC2(CCN(C(=O)OCc3ccccc3)CC2)c2ccccc21
< 5.00	CN1CCN(c2ccccc2NC(=O)Nc2ccc(OC(F)(F)F)cc2)c2ccccc21
5.48	O=C(Nc1ccc(OC(F)(F)F)cc1)Nc1ccccc1N1CC2(CCN(Cc3ccccc3)CC2)c2ccccc21

SMILES	pIC50
CC(C)N1CCC2(CC1)CN(c1ccccc1NC(=O)Nc1ccc(OC(F)(F)F)cc1)c1ccccc12	5.33
CC(C)(C)CN1CCC2(CC1)CN(c1ccccc1NC(=O)Nc1ccc(OC(F)(F)F)cc1)c1ccccc12	6.17
CC(C)CN1CCC2(CC1)CN(c1ccccc1NC(=O)Nc1ccc(OC(F)(F)F)cc1)c1ccccc12	5.66
